The test system of assay [1] is female New Zealand white rabbits. The assay is described as follows: Continuous cystometry under irritated bladder conditions (0.5% acetic acid infusion). Conditions: for bladder capacity: p<0.01. The assay is classed as in vivo, rabbit. Here is the method: (§1) The effects of cumulative doses of HP749 (0, 1, 3 and 5 mg/kg i.v.), or duloxetine (0, 1 and 2 mg/kg i.v.) on the electromyographic and cystometric parameters were evaluated in anaesthetized female New Zealand white rabbits (n=12/group) under irritated conditions (continuous transvesical infusion of 0.5% acetic acid). The study was performed in accordance with the ethical standards of the Helsinki declaration.
Continuous cystometry was performed with the animal supine using a subcutaneous cystostomy. A T tube was connected to the multiperforable plug using a 20-gauge needle, online with a TRA021 pressure transducer and a micro-injection pump. Room-temperature diluted acetic acid was infused into the bladder at a rate of 1.4 ml/hr to elicit repetitive voidings, which allowed collection of data for a large number of voiding cycles. Continuous cystometry was recorded on a PowerLab 4/25.
(§2) At the beginning of the cystometry the bladder was emptied. The liquid infusion to stabilize the cyclic voidings was maintained at least for 60 minutes, continuously recording the cystometrogram. Then, placebo was intravenously administered, and the cystometrogram was recorded for other 40 minutes. Consecutive doses of duloxetine or HP749 were then administered with an interval of 40 minutes.
(§3) An intravenous cannula was connected to the ear vein for vehicle (saline) or drug administration. The drugs were freshly prepared before each experiment in saline. Drugs were administered intravenously in a volume of 1 ml. followed by 1 ml. flush of physiological saline.
(§4) All values were expressed as the mean±SEM. Duloxetine or HP749 effects were analyzed and compared with control (saline) values using Wilcoxon rank test. Mann-Whitney U test was performed to compare the effects of duloxetine and HP-749. Statistical significance was considered at p<0.05.

Assay [2] has as its system alpha1-adrenergic receptors. The experiment in a line: Contraction of isolated rabbit urethra rings by activation of alpha1-adrenergic receptors. Conditions: for contraction of the urethra induced by the compound itself: cumulative concentrations 0.01 to 100 μM, relative to norepinephrine 30 μM. Here is the method: The compounds were tested in ex vivo experiments carried out on rabbit urethra.
The tests were carried out on isolates of rabbit urethra which were obtained as follows.
The whole urethra was excised and washed in order to remove the adipose and connective tissues, and then cut into rings approximately 4 mm in diameter, one at the median level, the other at the distal level of the urethra.
In this trial, the ability of each of the four compounds mentioned above to induce, by themselves, a contraction of the urethra by activation of the alpha1-adrenergic receptors, compared with norepinephrine used as a positive control, is measured.
The protocol followed is an adaptation of the protocol described by Van der Graaf et al. (Eur. J. Pharmacol., 327: 25-32, 1997).
Krebs-Henseleit solution was modified by adding propanolol (1 μM), normetanephrin (1 μM), desipramine (0.1 μM) and deoxycorticosterone (3 μM) in order to block the beta-adrenergic receptors, catechol-O-methyltransferase and the uptake of noradrenalin type 1 (neuronal) and 2 (extraneuronal), respectively.
An initial force of 1 g is applied to the samples. After a period of 60 minutes of equilibration, the rings are brought into contact with norepinephrine (30 μM), twice consecutively, separated by washing for 60 minutes. The rings that have a contractile response of less than 1 g are discarded and new rings are optionally prepared. After washing for 30 minutes, the compound tested is added at cumulative concentrations ranging from 0.01 to 100 μM. In parallel, the solvent of the compound (distilled water or DMSO) is tested thereon so as to obtain a control curve.
In the case of HP748, an additional experiment was carried out in which prazosin (1 μM), an alpha1-adrenergic receptor antagonist, was incubated for 30 minutes before the addition of HP748.
The results are expressed as percentage of the contraction induced by the second addition of norepinephrine at 30 μM as a function of the concentration of the compound. The latter is represented on a logarithmic scale, by the logarithm of the value in mol/l.

In assay [3] the test system is female New Zealand white rabbits. The experiment in a line: Electromyography of striated sphincter (SS-EMG) under irritated bladder conditions. Type of assay: in vivo, rabbit. On the procedure:
as §1, §2
Two electrodes (30-gauge needle) were placed percutaneously into the striated anal sphincter approximately 5-10 mm. lateral to the anus. […] SS-EMG was continuously recorded during the cystometry.
as §3, §4

Consider `CCCN(c1ccncc1)n1ccc2ccccc21` [HP749, N-propyl-N-(4-pyridinyl)-1H-indol-1-amine], for which the bladder capacity in assay [1] (1 mg/kg i.v.) is listed as 172 % of the control; in assay [1] (5 mg/kg i.v.), 235 % of the control. Moreover, in assay [1] (Mann-Whitney U test, p<0.05), the “effect on bladder capacity compared with duloxetine” value is reported as “significantly higher than those of duloxetine”. Further, in assay [2], the “contraction of the urethra induced by the compound itself” value (“contraction of the urethra induced” for short) is recorded as “no effect”. For the same molecule, in assay [3] (Mann-Whitney U test, p<0.05), the “effect on SS-EMG compared with duloxetine” value is “significantly higher than those of duloxetine”. Further, the SS-EMG increase in assay [3] (all doses tested (1, 3 and 5 mg/kg i.v.), p<0.01) came out at 2.5 fold.

With `c1ccc2c(c1)ccn2Nc1ccncc1` [HP748, N-(4-pyridinyl)-1H-indol-1-amine], the “contraction of the urethra induced” value in assay [2] is listed as “induces a significant contraction”. Besides, the “contraction of the urethra after preincubation with prazosin” value in assay [2] (preincubation with 1 μM of prazosin for 30 minutes) is “completely blocked”.

`CCCN(c1ccncc1F)n1cc(C)c2ccccc21` [HP184, reference compound]: the “contraction of the urethra induced” value in assay [2] is recorded as “no effect”.

With `Cc1cn(Nc2ccncc2F)c2ccccc12` [HP183, reference compound], the “contraction of the urethra induced” value in assay [2] is “no effect”.

With `CNCC[C@H](Oc1cccc2ccccc12)c1cccs1` [duloxetine, reference compound], the bladder capacity result in assay [1] (duloxetine 1 and 2 mg/kg i.v. cumulative) is reported as “increased dose-dependently”. In assay [3] (2 mg./kg i.v., p<0.01), the SS-EMG activity result is “significantly increased”.

These data come from patent US20090036496A1, “Treatment of Stress Urinary Incontinence and Mixed Urinary Incontinence” (UROGENE, priority 2005, published 2009).
